Source: article PMC7747594, “Protease-activated receptor-2 ligands reveal orthosteric and allosteric mechanisms of receptor inhibition” (Communications Biology, 2020)

Assays:
[1] = target: T1, PAR2 (F2RL1) (Homo sapiens, UniProt P55085); experiment: β-arrestin recruitment, DiscoverX profiling service, PAR2; type: cell-based; settings: for Max Response: in % (unit assumed)
T1 sequence (P55085 26-397): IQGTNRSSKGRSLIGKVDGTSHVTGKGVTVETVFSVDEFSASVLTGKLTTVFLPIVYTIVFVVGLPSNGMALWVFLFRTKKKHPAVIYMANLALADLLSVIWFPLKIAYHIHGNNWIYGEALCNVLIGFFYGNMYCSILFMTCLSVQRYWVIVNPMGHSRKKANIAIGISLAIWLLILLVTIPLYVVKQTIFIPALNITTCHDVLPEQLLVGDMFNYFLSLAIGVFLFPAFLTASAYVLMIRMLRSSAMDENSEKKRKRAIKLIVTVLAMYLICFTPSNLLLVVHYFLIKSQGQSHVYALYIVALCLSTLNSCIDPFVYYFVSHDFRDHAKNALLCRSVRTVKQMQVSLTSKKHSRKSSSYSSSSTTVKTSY

[2] = test system: PAR2 stabilised receptor (StaR); experiment: Surface plasmon resonance (SPR) binding, single-cycle kinetics
Procedure: (§1) The SPR binding experiments were performed on a Biacore S200 optical biosensor unit (GE Healthcare) at 30 °C. Sensor chips Series S NTA (Research grade, GE Healthcare) were equilibrated at room temperature prior to use. The running buffer for protein tethering and subsequent ligand binding experiments was 50 mM HEPES, 250 mM NaCl, 0.1% (w/v) LMNG, 0.005% (w/v) CHS, 0.025% (w/v) CHAPS, pH 7.4, if not stated otherwise. The tethering of PAR2 was performed at a flow rate of 5 µl min^−1. The NTA surface was chosen to allow full control of the steric orientation of the tethered protein and was conditioned by a one-minute injection of a 350 mM EDTA solution (pH 8.3) followed by a one-minute injection of running buffer supplemented with 0.5 mM NiCl2. To allow for a covalent tethering after the initial capture step, the conditioned surface was activated for 7 min with 50 mM NHS and 200 mM EDC. This was immediately followed by an injection of PAR2 in running buffer at a concentration of 80–120 µg ml^−1 with a contact time of 5–10 min to achieve the desired densities of 8000–9000 RU. […] Reference surfaces were prepared accordingly, omitting the injection of protein over the activated reference surface. The subsequent binding experiments were all performed at a flow rate of 30 µl min^−1 and by employing the method of single-cycle kinetics. This approach involves the sequential injection of a compound concentration series without regeneration steps. A contact time of 60 s was selected, which was followed by a 30 min dissociation phase to allow for a proper estimation of the dissociation rate constant. Compounds were dissolved in DMSO to 10 mM and a digital dispenser HP D300 (Tecan) was used to set up the compound concentration series using 8 concentrations with a 2-fold dilution pattern. […] Prior to the analysis of compound binding, three running buffer blanks were injected to equilibrate the instrument. The data collection rate was set to 10 Hz and all experiments were repeated at least four times to allow for error estimations. Due to the low DMSO mismatch (maximum 0.1%) introduced by the compound addition, no solvent correction was required. To evaluate compound binding to the PAR-AZ8838 complex, the antagonist AZ8838 was supplemented into the running buffer at a concentration of 50 µM and the instrument was equilibrated for 1 h before performing the single-cycle kinetic study as described above. Similarly, binding of AZ2429 to the PAR-AZ3451 complex was investigated after addition of 1 µM AZ3451 to the running buffer followed by 1 h equilibrium period, while the addition of 10 µM AZ2429 to the running buffer was required to ensure >99% saturation for single-cycle kinetic study of AZ3451 binding to the PAR2-AZ2429 complex.
(§2) Prior to the fitting of the data, the reference-subtracted data was further analysed by subtracting a similar single-cycle kinetic experiment containing only buffer injections in order to correct for injection artefacts, systematic noise and instrument drift. This double-referenced data has been fitted using a simple 1:1 interaction model as described by Karlsson et al.[46] in order to extract kinetic and affinity data. All data were expressed as mean ± s.e.m. and further analysed using GraphPad Prism 8. Statistical differences were assessed using student’s t-tests (two-tailed) for data sets of two and one-way ANOVA for data sets of three. Significance was set at ^+p < 0.05, ^++p < 0.01, ^+++p < 0.001, ^++++p < 0.0001 compared to AZ3451, and *p < 0.05, **p < 0.01, ***p < 0.001, ****p < 0.0001 compared to AZ2429.

[3] = target: T2, PAR2 stabilised receptor (StaR) (Homo sapiens, UniProt P55085); experiment: as above
T2 sequence (P55085 55-377): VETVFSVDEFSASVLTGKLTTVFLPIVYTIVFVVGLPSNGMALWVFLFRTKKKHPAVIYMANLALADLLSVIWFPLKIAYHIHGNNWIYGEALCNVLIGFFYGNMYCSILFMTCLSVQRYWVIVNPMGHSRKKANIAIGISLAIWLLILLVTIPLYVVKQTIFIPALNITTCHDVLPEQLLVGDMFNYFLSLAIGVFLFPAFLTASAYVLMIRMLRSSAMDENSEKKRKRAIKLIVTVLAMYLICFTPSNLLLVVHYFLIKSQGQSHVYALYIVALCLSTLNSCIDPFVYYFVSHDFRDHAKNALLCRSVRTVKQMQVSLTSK
Procedure: as §1, §2

Row | Curve Bottom ([1]; Agonist format) | Curve Top ([1]; Agonist format) | Hill ([1]; Agonist format) | Max Response ([1]; Agonist format) | EC50 ([1]; Agonist format, read-out: RC50 (EC50)) [µM] | Max Response ([1]; Antagonist format) | IC50 ([1]; Antagonist format, read-out: RC50 (IC50)) [µM] | association kinetics slower than AZ3451 ([2]; SPR) | dissociation rate decreased relative to AZ3451 ([2]; SPR) [fold] | weaker affinity than AZ3451 ([2]; SPR) [fold] | ka ([2]; apo-PAR2, 30 °C) | pKD ([2]; apo-PAR2, 30 °C) | residence time ([2]; apo-PAR2, 30 °C) | reduction in affinity in presence of saturating AZ8838 ([3]; SPR) [fold] | residence time ([3]; SPR, apo-PAR2) | ka ([3]; apo-PAR2, 30 °C) | pKD ([3]; apo-PAR2, 30 °C) | residence time ([3]; apo-PAR2, 30 °C) | Structure (SMILES)
1 | -2 | 103.3 | 1.29 | 104.3 | 0.025 | 4.5 | > 50 | around 100 fold | 5 | 10 | 1.5 ± 0.1 × 10^4 (n = 4) M^−1 s^−1 | 6.89 ± 0.03 (n = 4) | 523 ± 50 (n = 4) s | – | – | – | – | – | CNC(=O)[C@H]1CC[C@@H](NC(=O)[C@H](CC2CCCCC2)NC(=O)c2cn(Cc3ccccc3)nn2)c2ccccc21 [AZ2429]
2 | – | – | – | – | – | – | – | – | – | – | – | – | – | 3 | about 2 min | 1.1 ± 0.6 × 10^6 (n = 4) M^−1 s^−1 | 7.96 ± 0.04 (n = 4) | 116 ± 68 (n = 4) s | C[C@@H](C1CCCCC1)n1c(-c2cc3c(cc2Br)OCO3)nc2cc(C(=O)Nc3ccc(C#N)cc3)ccc21 [AZ3451]
